Data: publication PMC8224038, “Anti-Leukemic Properties of Aplysinopsin Derivative EE-84 Alone and Combined to BH3 Mimetic A-1210477” (Marine Drugs, 2021)
Where two headings read alike, the source gives them in different places.

Columns and labels:
K562 cells [1] = assay: Trypan blue exclusion test, proliferation (GI50); format: cell-based, human; conditions: Homo sapiens
Protocol: (§1) Cell proliferation and viability were assessed by the trypan blue exclusion method (Lonza), and viable cells were counted using a hematocytometer (Marienfeld, Lauda-Königshofen, Germany). Differential toxicity was calculated by comparing the viability of RPMI 1788 cells to the viability of cancer cells (normal/cancer cells). The difference in viability was expressed in terms of fold change.

K562IR = assay: Trypan blue exclusion test, proliferation (GI50); format: cell-based; conditions: Homo sapiens
Protocol: as §1

KBM5IR = assay: Trypan blue exclusion test, proliferation (GI50); format: cell-based
Protocol: as §1

KBM5 = assay: Trypan blue exclusion test, proliferation (GI50); format: cell-based; conditions: Homo sapiens
Protocol: as §1

MEG01 = assay: Trypan blue exclusion test, proliferation (GI50); format: cell-based; conditions: Homo sapiens, MEG-01
Protocol: as §1

RPMI 1788 [2] = assay: Trypan blue exclusion test, proliferation (GI50) in noncancerous cells; format: cell-based, human; conditions: Homo sapiens
Protocol: as §1

RPMI 1788 [3] = assay: Trypan blue exclusion test, viability (IC50) in noncancerous cells; format: cell-based, human; conditions: for IC50: Homo sapiens, read-out: IC50 (50% cell death)
Protocol: as §1

K562 cells [4] = assay: Trypan blue exclusion test, viability; format: cell-based, human; conditions: Homo sapiens
Protocol: as §1

K562IR cells [5] = assay: Trypan blue exclusion test, viability; format: cell-based; conditions: Homo sapiens, 24 h
Protocol: as §1

K562 cells [6] = assay: Annexin V APC/PI staining quantified by FACS; format: cell-based, human
Excerpt: (§3) The percentage of apoptotic cells was quantified as the fraction of cells showing fragmented nuclei, as assessed by fluorescence microscopy (Nikon, Tokyo, Japan) after staining with Hoechst 33342 (Sigma-Aldrich) and propidium iodide (Sigma-Aldrich). In addition, apoptosis was confirmed by Annexin V APC (Biolegend, 640919)/propidium iodide (BD Biosciences, 556547) staining and fluorescence-activated cell sorter (FACS) analysis according to the manufacturer protocol (BD Biosciences, 556547).

K562 cells [7] = assay: Hoechst/PI staining by fluorescent microscopy; format: cell-based, human; conditions: K562, 50 μM, 72 h
Excerpt: as §3

PBMCs = assay: Toxicity test in nonproliferating and proliferating PBMCs (trypan blue); format: cell-based, human; conditions: 24, 48, 72 h
Protocol: Peripheral blood mononuclear cells (PBMCs) were isolated by density gradient centrifugation using Ficoll-Hypaque (GE Healthcare, Roosendaal, The Netherlands) from freshly collected buffy coats as previously described, obtained from healthy adult human volunteers (Red Cross, Luxembourg City, Luxembourg) after ethical approval as well as written informed consent from each volunteer. After isolation, cells were incubated overnight at 2 × 10^6 cells/mL in RPMI 1640 (supplemented with 1% antibiotic–antimycotic and 10% FCS (BioWhittaker, Verviers, Belgium) at 37 °C and 5% CO2 in a humidified atmosphere. The day after, cell concentration was adjusted at 1 × 10^6 cells/mL using the same fresh complete medium and then treated as indicated.
as §1

K562 [8] = assay: Methocult colony formation assay; format: cell-based, human; conditions: K562, 48-h pretreatment
Protocol: For 48 h pretreatment of EE-84 colony formation assays, approximately 3 × 10^5 cells were seeded in each well of a 24-well plate, treated with EE-84 at indicated concentrations, and incubated at 37 °C and 5% of CO2 in a humidified atmosphere for 48 h. After 48 h, 1000 cells were counted and grown in a semisolid methylcellulose medium (Methocult H4230, StemCell Technologies Inc., Vancouver, BC, Canada) supplemented with 10% FBS. Colonies were detected after 10 days of culture by adding 1 mg/mL of 3-(4,5-dimethylthiazol-2-yl)-2,5-diphenyltetrazolium bromide (MTT) reagent (Sigma-Aldrich) and were analyzed by Image J 1.8.0 software (U.S. National Institute of Health, Bethesda, MD, USA).

K562 [9] = assay: Seahorse XFp Cell Mito Stress test (OCR); format: cell-based, human; conditions: K562, EE-84 30 µM, 72 h, vs control
Protocol: (§2) The oxygen consumption rate (OCR) was measured using a Seahorse XFp Cell Mito Stress Assay (#103010-100, Agilent Technologies, Seoul, Korea) ran on a Seahorse XFp analyzer (Agilent Technologies, Seoul, Korea) according to the manufacturer’s instructions. […] Before measurements, plates were equilibrated in a CO2-free incubator at 37 °C for 1 h. The analysis was performed using 1.5 µM oligomycin, 0.5 µM carbonyl cyanide-4-(trifluoromethoxy)phenylhydrazone (FCCP), and 1 µM rotenone/antimycin A as indicated. Data were analyzed using the Seahorse XF Cell Mito Stress Test report generator software (Agilent). The extracellular acidification rate (ECAR) was measured in response to the sequential injection of 10 mM glucose, 2 µM oligomycin (H+-ATP-synthase inhibitor), and 50 mM 2-deoxy-d-glucose (2DG) (hexokinase inhibitor) to detect non-glycolytic acidification, glycolysis, maximal glycolytic capacity, and glycolytic reserve using a Seahorse XFp analyzer with a Glycolysis Stress Test kit (Agilent, Santa Clara, CA, USA).

K562IR cells [10] = assay: Seahorse XFp Glycolysis Stress test (ECAR); format: cell-based, human; conditions: EE-84 100 μM, 72 h
Protocol: as §2

K562 [11] = assay: Seahorse XFp Glycolysis Stress test (ECAR); format: cell-based, human; conditions: K562, EE-84 50 μM, 72 h, vs control
Protocol: as §2

zebrafish embryos = assay: Zebrafish toxicity; conditions: 24 h exposure
Protocol: For toxicity assays, embryos were treated with 0.003% phenylthiourea (PTU) 14 h before the assay to remove pigmentation. Then, 2 h before the assay, the embryo’s shell was eliminated and then treated for up to 24 h with aplysinopsin compounds at indicated concentrations in 24-well plates. Viability and abnormal development were assessed after 24 h of treatment under light microscopy (Carl Zeiss Stereomicroscope DV4, Seoul, Korea). Pictures were taken by fixing embryos onto a glass slide with 3% methylcellulose (Sigma-Aldrich).

[12] = K562, 24 h, EE-84 30 μM, with z-VAD-fmk (50 μM)

COc1ccc2c(c1)c(C(=O)C(=O)Nc1sc3c(c1C(C)=O)CC(C)CC3)cn2Cc1ccccc1 (stereo not shown) [EE-84, N-(3-Acetyl-4,5,6,7-Tetrahydro-5-Methylbenzo[b]Thiophen-2-yl)-2-(1-Benzyl-5-Methoxy-1H-Indol-3-yl)-2-Oxoacetamide]
GI50 (K562 cells [1]; K562, 48 h): 32.2 ± 3.91 µM
GI50 (K562 cells [1]; K562, 72 h): 19.1 ± 0.8 µM
GI50 (K562IR; 24 h): > 100 µM
GI50 (K562IR; 48 h): 95.6 ± 16.6 µM
GI50 (K562IR; 72 h): 55.1 ± 3.28 µM
GI50 (KBM5IR; 24 h): > 100 µM
GI50 (KBM5IR; 48 h): 32.8 ± 2.25 µM
GI50 (KBM5IR; 72 h): 29.2 ± 2.05 µM
GI50 (KBM5; KBM5, 24 h): > 50 µM
GI50 (KBM5; KBM5, 48 h): 34 ± 1.89 µM
GI50 (KBM5; KBM5, 72 h): 28.1 ± 1.68 µM
GI50 (MEG01; MEG01, 24 h): > 50 µM
GI50 (MEG01; MEG01, 48 h): 48.4 ± 5.02 µM
GI50 (MEG01; MEG01, 72 h): 28.9 ± 1.52 µM
GI50 (RPMI 1788 [2]; RPMI 1788, 24 h): > 50 µM
GI50 (RPMI 1788 [2]; RPMI 1788, 48 h): > 50 µM
GI50 (RPMI 1788 [2]; RPMI 1788, 72 h): 40.1 ± 3.79 µM
IC50 (RPMI 1788 [3]; RPMI 1788, 24 h): > 50 µM
IC50 (RPMI 1788 [3]; RPMI 1788, 48 h): > 50 µM
IC50 (RPMI 1788 [3]; RPMI 1788, 72 h): > 50 µM
differential toxicity RPMI-1788/K562 cells (RPMI 1788 [3]; at 40 and 50 µM, viability normal/cancer cells): significant differential toxicity
viability of RPMI 1788 cells (RPMI 1788 [3]; up to 50 µM, Figure S4B): did not significantly affect
viability at 30 µM (K562 cells [4]; K562, EE-84 30 μM 48 h with Baf-A1 (40 nM) post-treatment for last 8 h, read-out: cell viability): 89%
viability at 30 µM (K562 cells [4]; K562, EE-84 30 µM, 24 h, read-out: Viability (24 h)): 98 ± 1%
viability at 30 µM (K562 cells [4]; K562, EE-84 30 μM, 48 h, alone, read-out: cell viability): 98.7%
viability at 50 µM (K562 cells [4]; K562, EE-84 50 µM, 24 h): 96 ± 0.7%
viability at 30 µM (K562IR cells [5]; EE-84 30 µM): 95.3 ± 0.6%
viability at 50 µM (K562IR cells [5]; EE-84 50 µM): 97 ± 2.7%
AnnV+/PI+ (%) (K562 cells [6]; K562, 24 h, EE-84 30 μM): 2.98 ± 0.23%
AnnV+/PI− (%) (K562 cells [6]; K562, 24 h, EE-84 30 μM): 6.00 ± 1.43%
Combined cell death (%) (K562 cells [6]; K562, 24 h, EE-84 30 μM): 8.98 ± 2.14%
AnnV+/PI+ (%) (K562 cells [6]; [12]): 3.13 ± 0.21%
AnnV+/PI− (%) (K562 cells [6]; [12]): 5.33 ± 1.35%
Combined cell death (%) (K562 cells [6]; [12]): 8.46 ± 1.55%
AnnV+/PI+ (%) (K562 cells [6]; K562, EE-84 10 μM (Figure 3B)): 2.50 ± 0.62%
AnnV+/PI− (%) (K562 cells [6]; K562, EE-84 10 μM (Figure 3B)): 7.05 ± 1.46%
Combined cell death (%) (K562 cells [6]; K562, EE-84 10 μM (Figure 3B)): 9.55 ± 3.22%
AnnV+/PI+ (%) (K562 cells [6]; K562, EE-84 20 μM (Figure 3B)): 4.40 ± 0.94%
AnnV+/PI− (%) (K562 cells [6]; K562, EE-84 20 μM (Figure 3B)): 5.60 ± 1.98%
Combined cell death (%) (K562 cells [6]; K562, EE-84 20 μM (Figure 3B)): 10.00 ± 0.85%
AnnV+/PI+ (%) (K562 cells [6]; K562, EE-84 30 μM (Figure 3B)): 7.51 ± 2.70%
AnnV+/PI− (%) (K562 cells [6]; K562, EE-84 30 μM (Figure 3B)): 6.65 ± 2.29%
Combined cell death (%) (K562 cells [6]; K562, EE-84 30 μM (Figure 3B)): 14.16 ± 0.61%
AnnV+/PI+ (%) (K562 cells [6]; K562, EE-84 40 μM (Figure 3B)): 8.97 ± 1.03%
AnnV+/PI− (%) (K562 cells [6]; K562, EE-84 40 μM (Figure 3B)): 7.71 ± 2.10%
Combined cell death (%) (K562 cells [6]; K562, EE-84 40 μM (Figure 3B)): 16.68 ± 0.89%
AnnV+/PI+ (%) (K562 cells [6]; K562, EE-84 50 μM (Figure 3B)): 8.25 ± 1.95%
AnnV+/PI− (%) (K562 cells [6]; K562, EE-84 50 μM (Figure 3B)): 8.22 ± 3.12%
propidium iodide (PI)-positive cells without nuclear fragmentation (K562 cells [7]): 11.0 ± 4.23%
toxic effects in nonproliferating and proliferating PBMCs (PBMCs): did not induce toxic effects
total surface area and average size of colonies (K562 [8]): reduced
oxygen consumption rate (OCR) (K562 [9]): significantly decreased
glycolytic capacity of ECAR (K562IR cells [10]): significantly decreased
glycolysis and glycolytic capacity (ECAR) (K562 [11]): significantly decreased
heart rate of zebrafish (zebrafish embryos): moderate decrease
growth (relative body length) of zebrafish (zebrafish embryos; concentrations up to 100 µM): did not affect
survival rate of zebrafish (zebrafish embryos; concentrations up to 100 µM): did not affect
morphological changes of zebrafish (zebrafish embryos; embryos 24 hpf, different concentrations): No significant morphological changes
